Reference: ChEMBL document CHEMBL5291721, “A preclinical secondary pharmacology resource illuminates target-adverse drug reaction associations of marketed drugs” (Nat Commun, 2023)

Tests used:
[1] = target: T1, Cholecystokinin receptor type A (Homo sapiens, UniProt P32238)
T1 sequence (P32238 whole entry): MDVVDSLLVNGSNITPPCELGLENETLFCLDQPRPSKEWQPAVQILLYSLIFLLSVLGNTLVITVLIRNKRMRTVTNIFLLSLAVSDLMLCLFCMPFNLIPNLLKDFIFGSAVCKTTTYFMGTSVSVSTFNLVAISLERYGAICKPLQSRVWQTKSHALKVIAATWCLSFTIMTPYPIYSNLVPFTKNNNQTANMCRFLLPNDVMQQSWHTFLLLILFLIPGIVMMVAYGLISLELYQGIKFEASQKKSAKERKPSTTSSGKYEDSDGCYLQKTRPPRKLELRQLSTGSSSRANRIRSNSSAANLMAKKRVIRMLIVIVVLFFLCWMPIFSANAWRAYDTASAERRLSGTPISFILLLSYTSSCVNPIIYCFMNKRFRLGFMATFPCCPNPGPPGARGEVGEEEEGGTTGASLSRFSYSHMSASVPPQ

[2] = target: T2, 5-hydroxytryptamine receptor 1A (Homo sapiens, UniProt P08908); type: functional, cell-based
T2 sequence (P08908 whole entry): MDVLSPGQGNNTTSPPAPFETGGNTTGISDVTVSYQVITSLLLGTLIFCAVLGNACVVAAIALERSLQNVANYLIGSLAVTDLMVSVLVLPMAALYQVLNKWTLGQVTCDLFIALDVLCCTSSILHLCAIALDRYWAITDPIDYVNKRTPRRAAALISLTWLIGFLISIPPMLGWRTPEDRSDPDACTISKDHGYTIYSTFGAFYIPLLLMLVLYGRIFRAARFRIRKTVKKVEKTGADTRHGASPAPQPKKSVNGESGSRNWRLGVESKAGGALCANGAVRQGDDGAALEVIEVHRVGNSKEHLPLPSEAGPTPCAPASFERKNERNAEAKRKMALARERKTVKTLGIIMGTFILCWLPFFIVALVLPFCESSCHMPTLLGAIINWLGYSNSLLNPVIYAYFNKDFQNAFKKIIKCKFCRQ

[3] = target: Neuronal acetylcholine receptor subunit alpha-4 (Homo sapiens, UniProt P43681)
[4] = target: Kappa-type opioid receptor (Homo sapiens, UniProt P41145)
[5] = target: 3',5'-cyclic-AMP phosphodiesterase 4D (Homo sapiens, UniProt Q08499); type: functional
[6] = target: T3, Alpha-1A adrenergic receptor (Homo sapiens, UniProt P35348); type: functional, cell-based
T3 sequence (P35348 whole entry): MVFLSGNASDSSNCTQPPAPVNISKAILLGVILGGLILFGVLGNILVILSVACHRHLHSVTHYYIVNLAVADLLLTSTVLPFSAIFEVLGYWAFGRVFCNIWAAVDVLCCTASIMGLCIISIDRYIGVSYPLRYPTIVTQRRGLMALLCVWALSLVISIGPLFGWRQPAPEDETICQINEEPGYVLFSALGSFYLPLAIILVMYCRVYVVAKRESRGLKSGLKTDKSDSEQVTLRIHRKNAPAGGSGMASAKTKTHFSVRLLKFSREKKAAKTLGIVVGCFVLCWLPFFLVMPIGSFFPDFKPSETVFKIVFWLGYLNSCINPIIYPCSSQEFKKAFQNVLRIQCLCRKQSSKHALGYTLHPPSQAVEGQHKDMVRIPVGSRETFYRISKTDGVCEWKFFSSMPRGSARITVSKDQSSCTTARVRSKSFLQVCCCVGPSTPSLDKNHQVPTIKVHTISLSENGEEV

[7] = target: Gamma-aminobutyric acid receptor subunit alpha-1 (Rattus norvegicus, UniProt P62813); type: functional
[8] = target: T2, 5-hydroxytryptamine receptor 1A; type: functional, cell-based; remark: listed apart in the source
D(3) dopamine receptor = D(3) dopamine receptor (Homo sapiens, UniProt P35462)
[9] = target: T3, Alpha-1A adrenergic receptor
Vasopressin V1a receptor = Vasopressin V1a receptor (Homo sapiens, UniProt P37288)
Further: assay procedure not described here.

Vasopressin V1a receptor, sequence (P37288 whole entry): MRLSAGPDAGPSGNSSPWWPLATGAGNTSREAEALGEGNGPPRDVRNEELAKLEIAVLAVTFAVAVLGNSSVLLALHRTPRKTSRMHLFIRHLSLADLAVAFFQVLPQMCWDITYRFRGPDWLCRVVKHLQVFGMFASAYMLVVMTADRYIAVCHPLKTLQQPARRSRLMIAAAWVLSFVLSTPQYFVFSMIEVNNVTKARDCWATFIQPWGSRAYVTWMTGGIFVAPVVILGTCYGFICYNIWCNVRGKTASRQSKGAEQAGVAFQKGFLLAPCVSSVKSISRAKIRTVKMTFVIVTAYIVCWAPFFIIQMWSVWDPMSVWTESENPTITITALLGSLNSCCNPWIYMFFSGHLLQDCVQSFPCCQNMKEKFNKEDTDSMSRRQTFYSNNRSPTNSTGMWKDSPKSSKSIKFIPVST
Gamma-aminobutyric acid receptor subunit alpha-1, sequence (P62813 whole entry): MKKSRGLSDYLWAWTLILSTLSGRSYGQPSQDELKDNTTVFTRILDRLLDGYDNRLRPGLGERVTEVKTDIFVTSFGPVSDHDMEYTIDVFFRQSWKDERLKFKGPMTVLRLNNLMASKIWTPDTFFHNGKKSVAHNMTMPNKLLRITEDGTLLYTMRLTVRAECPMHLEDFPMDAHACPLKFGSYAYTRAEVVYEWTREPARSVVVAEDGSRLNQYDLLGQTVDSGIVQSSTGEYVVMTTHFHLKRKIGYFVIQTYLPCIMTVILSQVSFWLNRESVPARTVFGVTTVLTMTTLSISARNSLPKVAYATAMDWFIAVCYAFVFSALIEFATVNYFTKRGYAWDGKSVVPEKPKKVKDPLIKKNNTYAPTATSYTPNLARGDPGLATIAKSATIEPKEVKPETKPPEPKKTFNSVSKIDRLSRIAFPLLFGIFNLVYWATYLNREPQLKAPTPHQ
D(3) dopamine receptor, sequence (P35462 whole entry): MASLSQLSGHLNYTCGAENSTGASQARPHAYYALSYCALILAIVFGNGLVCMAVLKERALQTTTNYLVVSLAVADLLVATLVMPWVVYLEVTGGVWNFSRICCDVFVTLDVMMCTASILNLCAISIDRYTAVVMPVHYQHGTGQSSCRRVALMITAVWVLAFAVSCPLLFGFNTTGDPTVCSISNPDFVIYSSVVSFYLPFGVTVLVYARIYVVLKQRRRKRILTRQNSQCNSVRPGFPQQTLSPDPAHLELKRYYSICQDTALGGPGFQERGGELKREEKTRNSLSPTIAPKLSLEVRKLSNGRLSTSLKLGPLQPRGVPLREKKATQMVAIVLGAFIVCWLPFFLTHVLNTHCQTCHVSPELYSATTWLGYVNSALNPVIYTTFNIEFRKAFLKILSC
Kappa-type opioid receptor, sequence (P41145 whole entry): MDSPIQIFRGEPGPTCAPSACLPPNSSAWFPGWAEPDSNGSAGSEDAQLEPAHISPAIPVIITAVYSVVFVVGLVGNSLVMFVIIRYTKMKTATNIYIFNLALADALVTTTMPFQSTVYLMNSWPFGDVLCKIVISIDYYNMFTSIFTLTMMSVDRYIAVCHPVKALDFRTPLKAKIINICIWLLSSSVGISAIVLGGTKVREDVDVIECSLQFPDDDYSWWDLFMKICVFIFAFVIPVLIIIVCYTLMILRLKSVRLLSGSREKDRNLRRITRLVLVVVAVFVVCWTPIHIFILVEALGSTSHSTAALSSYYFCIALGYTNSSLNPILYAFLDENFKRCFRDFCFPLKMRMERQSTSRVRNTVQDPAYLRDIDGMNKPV
3',5'-cyclic-AMP phosphodiesterase 4D, sequence (Q08499 whole entry): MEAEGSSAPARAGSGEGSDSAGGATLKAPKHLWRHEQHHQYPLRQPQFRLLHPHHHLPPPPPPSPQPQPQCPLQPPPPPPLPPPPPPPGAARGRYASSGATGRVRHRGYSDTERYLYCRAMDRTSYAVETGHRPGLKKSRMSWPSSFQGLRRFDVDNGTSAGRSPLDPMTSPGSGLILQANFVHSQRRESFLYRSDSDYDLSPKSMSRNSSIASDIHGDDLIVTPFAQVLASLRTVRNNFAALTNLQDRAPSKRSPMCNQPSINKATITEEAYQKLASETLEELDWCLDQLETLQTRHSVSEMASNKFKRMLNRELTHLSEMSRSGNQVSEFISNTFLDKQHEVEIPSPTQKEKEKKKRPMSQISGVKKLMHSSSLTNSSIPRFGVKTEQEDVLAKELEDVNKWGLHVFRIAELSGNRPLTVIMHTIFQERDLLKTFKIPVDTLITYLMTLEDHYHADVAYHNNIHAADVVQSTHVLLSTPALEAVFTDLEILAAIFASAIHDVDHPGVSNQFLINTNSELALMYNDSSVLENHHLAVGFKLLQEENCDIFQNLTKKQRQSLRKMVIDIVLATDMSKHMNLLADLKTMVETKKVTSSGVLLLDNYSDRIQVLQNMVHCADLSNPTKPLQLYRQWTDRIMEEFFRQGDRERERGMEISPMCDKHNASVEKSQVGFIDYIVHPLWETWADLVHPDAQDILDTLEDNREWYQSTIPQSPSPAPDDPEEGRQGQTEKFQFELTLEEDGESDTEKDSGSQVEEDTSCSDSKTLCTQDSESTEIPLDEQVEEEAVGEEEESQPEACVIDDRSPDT
Neuronal acetylcholine receptor subunit alpha-4, sequence (P43681 whole entry): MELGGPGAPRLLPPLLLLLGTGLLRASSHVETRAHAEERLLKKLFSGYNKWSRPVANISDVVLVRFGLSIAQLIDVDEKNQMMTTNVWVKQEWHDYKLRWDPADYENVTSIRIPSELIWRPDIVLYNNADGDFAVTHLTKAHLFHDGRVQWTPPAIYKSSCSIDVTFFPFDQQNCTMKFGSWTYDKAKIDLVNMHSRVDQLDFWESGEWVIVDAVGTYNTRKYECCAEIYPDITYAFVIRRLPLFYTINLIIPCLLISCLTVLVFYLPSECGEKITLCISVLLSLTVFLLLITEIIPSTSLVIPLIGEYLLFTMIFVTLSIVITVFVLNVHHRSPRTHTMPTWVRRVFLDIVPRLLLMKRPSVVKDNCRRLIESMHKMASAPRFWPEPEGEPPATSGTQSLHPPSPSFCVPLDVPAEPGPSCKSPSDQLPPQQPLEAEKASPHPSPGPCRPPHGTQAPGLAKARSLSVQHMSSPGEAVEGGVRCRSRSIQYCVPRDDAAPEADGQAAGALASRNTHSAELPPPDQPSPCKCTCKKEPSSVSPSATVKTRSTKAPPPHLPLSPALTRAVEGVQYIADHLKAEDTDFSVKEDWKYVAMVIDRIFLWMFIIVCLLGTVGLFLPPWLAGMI

SMILES	AC50 [1]	AC50 [2]	AC50 [3]	AC50 [4]	AC50 [5]	AC50 [6]	AC50 [7]	AC50 [8]	AC50 (D(3) dopamine receptor)	AC50 [9]	AC50 (Vasopressin V1a receptor)
C[N+](C)(C)CCOP(=O)([O-])OC[C@H](O)CO	> 30 µM	> 30 µM	> 30 µM	> 30 µM	> 30 µM	> 30 µM	> 30 µM	> 30 µM	> 30 µM		
CCOC(=O)c1ccc(N)cc1 [BENZOCAINE]	> 10 µM	> 10 µM	> 10 µM	> 10 µM	> 30 µM		> 10 µM	> 10 µM	> 30 µM	> 10 µM	
CC(=O)O[C@]1(C(C)=O)CC[C@H]2[C@@H]3C=C(Cl)C4=CC(=O)[C@@H]5C[C@@H]5[C@]4(C)[C@H]3CC[C@@]21C [CYPROTERONE ACETATE]	> 30 µM		> 10 µM	> 10 µM	> 30 µM		> 10 µM		> 30 µM	> 10 µM	> 10 µM
Cc1cccc(C)c1NC(=O)CC12CCCN1CCC2 [PILSICAINIDE]	> 30 µM	> 30 µM	> 30 µM	> 30 µM	> 30 µM	> 30 µM	> 30 µM		> 30 µM		> 30 µM
CCOC(=O)C1=C(C)NC(C)=C(C(=O)OCC)C1c1ccccc1/C=C/C(=O)OC(C)(C)C [LACIDIPINE]	> 30 µM	> 30 µM	> 30 µM	8.6 µM	12 µM	> 30 µM	> 30 µM		> 30 µM		
O=S1(=O)CCN(CN2CCS(=O)(=O)NC2)CN1 [TAUROLIDINE]		> 30 µM	> 30 µM	> 30 µM	> 30 µM	> 30 µM	> 10 µM		27 µM		
O=C(/C=C/c1cccc(S(=O)(=O)Nc2ccccc2)c1)NO [BELINOSTAT]	> 30 µM		> 10 µM	> 10 µM	7.1 µM		> 10 µM		> 30 µM	> 10 µM	> 10 µM
CC(C)c1cccc(C(C)C)c1O [PROPOFOL]	> 30 µM	> 30 µM	> 30 µM		> 30 µM	> 30 µM		> 30 µM	> 30 µM		
CCC1(c2ccc(N)cc2)CCC(=O)NC1=O (stereo not given) [AMINOGLUTETHIMIDE]	> 30 µM	> 30 µM	> 30 µM	> 30 µM	9.5 µM	> 30 µM	> 30 µM		> 30 µM		
CC1=C(C(=O)OC(C)C)C(c2cccc([N+](=O)[O-])c2)C(C(=O)OC2CN(C(c3ccccc3)c3ccccc3)C2)=C(N)N1 (stereo not given) [AZELNIDIPINE]	> 30 µM	> 30 µM	> 30 µM	> 30 µM	6.6 µM	26 µM	> 30 µM		> 30 µM		> 30 µM
O=C1OC(OC(=O)c2cccnc2Nc2cccc(C(F)(F)F)c2)c2ccccc21 (stereo not given) [TALNIFLUMATE]	> 30 µM	> 30 µM	> 30 µM	> 30 µM	5.2 µM		> 30 µM	> 30 µM	> 30 µM		> 30 µM
CN[C@]1(c2ccccc2Cl)CCCCC1=O [ESKETAMINE]	> 30 µM	> 30 µM	> 30 µM	13 µM	> 30 µM	> 30 µM	> 30 µM		> 30 µM		> 30 µM
